{"source": "patent US11591288B2", "about": "“Compositions and methods for treating atherosclerotic cardiovascular disease” (GAVISH-GALILEE BIO APPLICATIONS LTD., priority 2017, dated 2023)", "key": {"[1]": {"tested_on": "rePON1", "assay": "rePON1-lyso-DGTS interaction, Trp fluorescence quenching", "assay_type": "binding", "experimental": "To 200 μl rePON1 (50 μg/ml=1.16 μM) solution in black 96-well plate wells was added lyso-DGTS at various concentration (0, 1, 5, 10, 25, 50, 75, and 100 μg/ml). The solutions were incubated for 2 h at 25° C. or 37° C. Fluorescence measurements were performed with an Infinite M200 PRO fluorescence spectrophotometer (Tecan) with emission spectra recorded from 320 to 450 nm at an excitation wavelength of 290 nm.\nThe effect of lyso-DGTS on rePON1 can result from a specific interaction between the lipid and the enzyme which was studied using Trp fluorescence quenching method. […] (FIG. 3A) and 37° C. (FIG. 3B) in the 300-450 nm range with an excitation wavelength of 290 nm. Lyso-DGTS quenched the fluorescence of rePON1 in a dose dependent manner at both temperatures.\nQuenching pathways can be described by the Stern-Volmer equation (eq. 1):\n[formula] where F0 and F are the fluorescence intensities in the absence and presence of quencher (lyso-DGTS), respectively, Ksv is the Stern-Volmer quenching constant, and [Q] is the quencher concentration (M).\nThe binding constant and binding sites were calculated using (eq. 2):\n[formula] where Ka is the binding constant, reflecting the degree of interaction between rePON1 and lyso-DGTS, and n is the number of binding sites specifying the number of lyso-DGTS molecules bound to a rePON1. […] (2.377×10^3 M^−1; FIG. 4C). The values obtained for n were not affected by the temperature and were equal to ˜1 (Table 4). The thermodynamic parameters: enthalpy (ΔH), entropy (ΔS), and free energy (ΔG) were calculated to characterize the type of rePON1-lyso-DGTS interaction."}, "[2]": {"tested_on": "HDL", "assay": "HDL-lyso-DGTS interaction, Trp fluorescence quenching", "assay_type": "binding, human", "experimental": "FIGS. 10A-10B show tryptophan fluorescence spectra of HDL (0.03 mg/ml) incubated with/without lyso-DGTS at various concentrations (1, 5, 10, 25, 50, 75, and 100 μg/ml) in black 96-well plates for 4 h at 37° C. (10A) or 25° C. (10B). The fluorescence was measured at excitation/emission 290/320-340 nm. The ability of lyso-DGTS to elevate HDL activity correlates with its binding affinity to HDL. Each experiment repeated separately at least three times.\nHDL and LDL were isolated from human plasma samples by discontinuous density gradient ultracentrifugation and dialyzed against saline containing sodium ethylenediaminetetraacetic acid (EDTA; 1 mmol/L) to protect the lipoproteins against oxidation. Before generating the experiments, LDL and HDL were dialyzed twice, for 1 h each time, and once more overnight against PBS at 4° C. to remove EDTA.\nIn order to test whether the protective effect of lyso-DGTS on HDL occurs via specific interaction between lyso-DGTS and the lipoprotein, the HDL-lyso-DGTS interaction was investigated by the Trp-fluorescence-quenching method. […] (FIG. 10A) and 25° C. (FIG. 10B) in the 300-450 nm range with an excitation wavelength of 290 nm. Lyso-DGTS quenched HDL fluorescence in a dose-dependent manner at both temperatures.\nQuenching pathways can be described by the Stem-Volmer equation (eq. 1 above). The Stern-Volmer curve was linear at the tested concentration of lyso-DGTS at both temperatures (with R>0.99 and p<0.0001). The Ksv values were (5.59±0.42)×10^3 M^−1 at 37° C. (FIG. 11A) and (4.83±0.59)×10^3 M^−1 at 25° C.\nThe binding constant and binding sites were calculated as shown for rePON1, using eq. 2 above. […] (FIG. 11D). The values obtained for n were not affected by temperature and were equal to 1 (Table 5). The thermodynamic parameters: enthalpy (ΔH), entropy (ΔS), and free energy (ΔG) were calculated to characterize the HDL-lyso-DGTS interaction type."}, "[3]": {"tested_on": "HDL", "assay": "HDL surface polarity, Laurdan General Polarization (Gp) assay", "set-up": "species or system human", "conditions": "HDL 100 μg/ml, lyso-DGTS 0-100 μg/ml", "experimental": "The fluorescence emission spectra of Laurdan were obtained using at excitation/emission 340/400-520 nm. The value of Gp of Laurdan was calculated using the formula: Gp=(I435−I490)/(I435+I490). Each experiment was repeated separately at least three times. *p<0.05, ***p<0.0001 related to the control (HDL without lyso-DGTS). Statistics were analyzed using T-test Graphpad prism 5 software.\nHDL particles are plurimolecular, quasi-spherical or discoid, pseudomicellar complexes predominantly composed of polar lipids solubilized by apolipoproteins. In order to determine a possible interaction between lyso-DGTS and the HDL lipid core, the Laurdan General Polarization (Gp) assay was used. […] This interaction may cause a change in its physical state and lipid core polarity and thus affect its functionality."}, "[4]": {"target": "T1, human serum PON1 (Homo sapiens, UniProt P27169)", "T1 construct": "tissue Industries biologic (Bet-Haemk, Israel); host or cells: human serum", "T1 sequence (P27169 whole entry)": "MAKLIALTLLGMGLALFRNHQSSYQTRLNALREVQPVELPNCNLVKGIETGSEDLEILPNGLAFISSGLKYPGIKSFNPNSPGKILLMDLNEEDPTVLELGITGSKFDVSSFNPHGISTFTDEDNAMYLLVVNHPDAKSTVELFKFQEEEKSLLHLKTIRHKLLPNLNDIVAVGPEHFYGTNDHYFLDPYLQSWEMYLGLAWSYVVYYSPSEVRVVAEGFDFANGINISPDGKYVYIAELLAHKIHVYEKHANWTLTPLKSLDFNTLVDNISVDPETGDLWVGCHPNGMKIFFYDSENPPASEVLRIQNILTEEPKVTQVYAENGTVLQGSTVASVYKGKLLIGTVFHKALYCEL", "assay": "Human serum PON1 lactonase activity (dihydrocoumarin assay)", "assay_type": "biochemical", "conditions": "4 h, 37° C., 1.8 units without lyso-DGTS", "experimental": "200 μl of human serum diluted by 20 with phosphate-buffered saline (PBS) (PH=7.6) was incubated with lyso-DGTS at various concentrations (0, 1, 5, 10 and 50 μg/ml) for 4 h at 37° C. Then, 10 μl was taken to measure lactonase activity using the dihydrocoumarine assay.\nThe effect of lyso-DGTS on lactonase activity of human serum PON1 was examined. Human serum was diluted by 20 with PBS buffer and incubated with and without lyso-DGTS at concentrations of 1, 5, 10, and 50 μg/ml for 4 h at 37° C. Lactonase activity of the enzyme was measured using dihydrocoumarin assay. As shown in Example 1, lyso-DGTS increased human serum lactonase activity in a dose dependent manner up to 10 μg/ml, from 1.8 units without lyso-DGTS to 2.16, 2.82, 3.01, and 2.80 units at 1, 5, 10 and 50 μg/ml lyso-DGTS, respectively. The change at 1 μg/ml of lyso-DGTS was not statistically significant (FIG. 2)."}}, "data": [{"smiles": "CC/C=C\\C/C=C\\C/C=C\\C/C=C\\C/C=C\\CCCC(=O)OCC(O)COCCC(C(=O)[O-])[N+](C)(C)C", "note": "(stereo not shown) [lyso-DGTS, lyso-diacylglyceryltrimethylhornmoserine]", "values": [{"measurement": "Stern-Volmer quenching constant Ksv, rePON1", "setting": "[1]; 25° C.", "result": "(1.18±0.13)×10^+4 M^−1"}, {"measurement": "Stern-Volmer quenching constant Ksv, rePON1", "setting": "[1]; 37° C.", "result": "(0.93±0.03)×10^+4 M^−1"}, {"measurement": "Binding constant Ka, lyso-DGTS-rePON1", "setting": "[1]; 298 K (25° C.)", "result": 10520, "unit": "M⁻¹"}, {"measurement": "Binding constant Ka, lyso-DGTS-rePON1", "setting": "[1]; 310 K (37° C.)", "result": 2377, "unit": "M⁻¹"}, {"measurement": "Stern-Volmer quenching constant Ksv, HDL", "setting": "[2]; 25° C.", "result": "(4.83±0.59)×10^3 M^−1"}, {"measurement": "Stern-Volmer quenching constant Ksv, HDL", "setting": "[2]; 37° C.", "result": "(5.59±0.42)×10^3 M^−1"}, {"measurement": "Binding constant Ka, lyso-DGTS-HDL", "setting": "[2]; 298 K (25° C.)", "result": 3780, "unit": "M⁻¹"}, {"measurement": "Binding constant Ka, lyso-DGTS-HDL", "setting": "[2]; 310 K (37° C.)", "result": 21650, "unit": "M⁻¹"}, {"measurement": "effect on HDL Gp values (Laurdan)", "setting": "[3]", "result": "significantly decreased the HDL Gp values at a dose dependent manner at 20, 50, and 100 μg/ml"}, {"measurement": "human serum PON1 lactonase activity", "setting": "[4]; 1 μg/ml lyso-DGTS, change not statistically significant", "result": 2.16, "unit": "units"}, {"measurement": "human serum PON1 lactonase activity", "setting": "[4]; 5 μg/ml lyso-DGTS", "result": 2.82, "unit": "units"}, {"measurement": "human serum PON1 lactonase activity", "setting": "[4]; 10 μg/ml lyso-DGTS", "result": 3.01, "unit": "units"}, {"measurement": "human serum PON1 lactonase activity", "setting": "[4]; 50 μg/ml lyso-DGTS", "result": 2.80, "unit": "units"}]}]}
